How the values were obtained:
TRPC5 = biological target: T1, TRPC5 (Homo sapiens, UniProt Q9UL62); assay: FIG. 4 TRPC5 overexpressing cells, fura, OAG in the presence of Ca2+; type: cell-based; conditions: TRPC5 O/E cells, N=4
T1 construct: expressed in transfected cells; host or cells: HEK293 (transient transfection)
T1 sequence (Q9UL62 1-973): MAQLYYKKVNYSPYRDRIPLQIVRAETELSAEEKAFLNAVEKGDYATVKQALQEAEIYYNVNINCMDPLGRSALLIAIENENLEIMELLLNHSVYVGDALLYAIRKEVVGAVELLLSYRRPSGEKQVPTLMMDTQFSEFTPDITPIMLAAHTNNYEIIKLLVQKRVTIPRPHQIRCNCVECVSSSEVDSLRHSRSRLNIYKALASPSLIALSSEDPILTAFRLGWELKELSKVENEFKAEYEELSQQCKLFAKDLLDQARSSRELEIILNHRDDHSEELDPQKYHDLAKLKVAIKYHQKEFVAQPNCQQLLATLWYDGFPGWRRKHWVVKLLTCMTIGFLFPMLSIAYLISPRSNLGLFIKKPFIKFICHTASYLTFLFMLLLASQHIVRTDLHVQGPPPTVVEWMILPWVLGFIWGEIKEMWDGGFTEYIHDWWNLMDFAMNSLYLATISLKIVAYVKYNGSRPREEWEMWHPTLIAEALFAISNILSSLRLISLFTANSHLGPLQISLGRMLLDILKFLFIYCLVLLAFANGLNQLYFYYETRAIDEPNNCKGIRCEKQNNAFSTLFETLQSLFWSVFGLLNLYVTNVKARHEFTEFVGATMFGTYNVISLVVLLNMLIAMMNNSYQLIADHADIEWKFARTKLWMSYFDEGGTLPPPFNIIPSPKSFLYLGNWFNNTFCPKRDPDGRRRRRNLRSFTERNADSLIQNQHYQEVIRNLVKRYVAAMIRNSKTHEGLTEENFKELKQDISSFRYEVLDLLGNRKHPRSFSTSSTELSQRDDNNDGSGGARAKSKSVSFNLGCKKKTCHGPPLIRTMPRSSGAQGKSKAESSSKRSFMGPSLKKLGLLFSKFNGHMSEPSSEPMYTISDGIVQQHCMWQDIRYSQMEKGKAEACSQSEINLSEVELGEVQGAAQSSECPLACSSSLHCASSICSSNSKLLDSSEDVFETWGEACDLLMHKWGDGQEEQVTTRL
Description: The assay was done in the presence of Ca^2+. OAG (1-Oleoyl-2-acetyl-sn-glycerol) is a cell permeable DAG analog and directly activates these TRPC channels (i.e. TRPC4 and TRPC5).

[1] = test system: bone erosion in collagen-induced arthritis (CIA); assay: Collagen-induced arthritis (CIA) bone erosion in mice; type: in vivo
Description: Inflammatory arthritis often requires treatments with serious side effects. Later in arthritis, bone erosion is a major problem that causes severe pain and debilitation. There is no small molecule drug available to specifically treat arthritis bone erosion. […] In previous studies, we had focused on store-operated Ca^2+ entry as the target of ELP-004, since Orail is required for osteoclast differentiation and ELP-004 blocks RANKL-induced osteoclast differentiation and SOCE at similar concentrations. However, ELP-004 blocks bone erosion in vivo at a remarkable 1000-fold higher efficacy, leading us to question the identity of the critical ion channel. To address this question, we performed a series of ELP-004 dose responses on HEK293 cells overexpressing different combinations of STIM/Orai, TRPC channels or CaV1.2. Remarkably, all TRPC channels were highly sensitive to ELP-004, leading us to consider the possibility that TRPC channels are the true target in arthritis-induced bone erosion. We are currently assessing the possibility that ELP-004 may inhibit osteoclastogenesis with higher efficacy when driven by inflammatory cytokines, both in vitro and in vivo. […]

[2] = Metabolite formation in mouse liver S9; type: in vitro ADME; conditions: cofactors-fortified mouse liver S9, 37 degrees centigrade, 1 hour; LC-MS/MS
Description: Drug Synthesis—ELP-004 (N-MeDCPA) was synthesized as described in U.S. patent Ser. No. 10/682,320. […] Metabolites formed after incubations using either cofactors-fortified mouse or human liver S9 (mouse liver S9; human liver S9) at 37 degrees centigrade for 1 hour. The reaction was quenched by ultracentrifugation. The supernatant was analyzed using LC-MS/MS analysis using Accela LC (Thermo Scientific, Inc., San Jose, CA) coupled to an LTQ LX or to LTQ Orbitrap XL.
ELP-004 is N-(3,4-dichlorophenyl)-N-methylpropanamide. The core structure of ELP-004 is an aniline compound. Aniline compounds, generally, have a high risk of forming reactive metabolites. ELP-004 was specifically designed to preclude formation of reactive metabolites. Methylation of the amide nitrogen improves metabolic stability.

[3] = Ability to cross the blood brain barrier
Description: (§1) ELP-004 was evaluated for its ability to cross the blood brain barrier. […] Other medications, such as for example but not limited to bupropion are known to cause problems due to dopamine transporter binding.

dopamine transporter = dopamine transporter (Homo sapiens, UniProt Q01959); assay: Dopamine transport
Description: as §1

CYP enzymes = assay: Induction of CYP enzymes; type: in vitro ADME

Chain of dopamine transporter (Q01959 whole entry): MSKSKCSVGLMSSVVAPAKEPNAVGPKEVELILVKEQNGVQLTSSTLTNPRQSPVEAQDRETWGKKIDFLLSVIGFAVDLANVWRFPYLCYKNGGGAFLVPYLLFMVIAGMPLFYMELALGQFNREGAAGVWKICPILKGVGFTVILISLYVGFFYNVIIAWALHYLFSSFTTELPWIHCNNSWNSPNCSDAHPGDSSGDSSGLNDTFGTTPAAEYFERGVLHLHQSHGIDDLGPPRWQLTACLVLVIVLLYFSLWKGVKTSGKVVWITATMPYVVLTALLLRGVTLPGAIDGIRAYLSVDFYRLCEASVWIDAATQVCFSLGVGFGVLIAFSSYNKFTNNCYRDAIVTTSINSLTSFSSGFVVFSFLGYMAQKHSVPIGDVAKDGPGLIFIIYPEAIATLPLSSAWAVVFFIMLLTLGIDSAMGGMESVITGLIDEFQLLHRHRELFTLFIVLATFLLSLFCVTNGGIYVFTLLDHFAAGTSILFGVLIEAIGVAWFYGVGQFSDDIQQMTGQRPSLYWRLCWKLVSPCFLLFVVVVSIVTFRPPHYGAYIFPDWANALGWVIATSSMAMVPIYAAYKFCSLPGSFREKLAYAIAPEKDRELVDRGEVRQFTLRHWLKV

CCC(=O)N(C)c1ccc(Cl)c(Cl)c1 [ELP-004, N-(3,4-dichlorophenyl)-N-methylpropanamide]
maximal inhibition of TRPC5 against the >50% threshold (TRPC5): does not reach the threshold of >50% inhibition
IC50 (TRPC5; OAG, Ca2+ present): 11 nM
efficacy of blocking bone erosion in vivo relative to RANKL-induced osteoclast differentiation and SOCE ([1]; in vivo versus in vitro concentrations): 1000 fold
bone erosion in collagen-induced arthritis ([1]; mice, even after symptoms of arthritis were measurable): strongly suppressed bone erosion
formation of reactive or toxic metabolites [2]: No reactive or toxic compounds were formed
crossing of the blood brain barrier [3]: does not cross the blood brain barrier
problems with dopamine transport (dopamine transporter): does not cause problems with dopamine transport
effect on induction of CYP enzymes (CYP enzymes): no deleterious effect on induction of CYP enzymes

— US20240058283A1, “THE MODE OF ACTION OF N-MeDCPA ON TRPC CHANNELS” (West Virginia University Board of Governors on Behalf of …, priority 2022, published 2024)
